# Marks after values point to notes of the source that are not given here.
# Test system: dogs (Beagle)
# Assay: Intraocular pressure studies by pneumatonometry in conscious dogs
# Assay type: in vivo
# Conditions: topical 25 μL drop, 0.03% drug in 0.1% polysorbate 80:10 mM TRIS, one eye; for Change in Intraocular Pressure (IOP), 0 hrs: 0 hrs (just before drug administration); for Change in Intraocular Pressure (IOP), 2 hrs: 2 hrs after dosing; for Change in Intraocular Pressure (IOP), 4 hrs: 4 hrs after dosing; for Change in Intraocular Pressure (IOP), 6 hrs: 6 hrs after dosing; for Change in Intraocular Pressure (IOP), 24 hrs: 24 hrs after dosing
# Protocol: Intraocular pressure studies were carried out for compounds 1-3 by pneumatonometry in dogs (Beagle) of both sexes (10-15 kg). The animals remained conscious throughout the study and were gently restrained by hand. Drugs were administered topically to one eye as a 25 μL volume drop comprising 0.03% drug, 0.1% polysorbate 80:10 mM TRIS, the other eye received 0.1% polysorbate 80:10 mM TRIS. Proparacaine (0.1%) was used for corneal anesthesia during tonometry. Intraocular pressure was determined just before drug administration and at 2, 4 and 6 hours thereafter on each day of the 5 day study. […] Drug was administered immediately after the first IOP reading.
Compound,"Change in Intraocular Pressure (IOP), 0 hrs","Change in Intraocular Pressure (IOP), 2 hrs","Change in Intraocular Pressure (IOP), 4 hrs","Change in Intraocular Pressure (IOP), 6 hrs","Change in Intraocular Pressure (IOP), 24 hrs"
"CCCCC[C@H](O)/C=C/[C@@H]1[C@@H](C/C=C\CCCC(=O)NCCc2ccc(O)c(O)c2)[C@@H](O)C[C@H]1O [Compound 2, (Z)-7-[(1R,2R,3R,5S)-3,5-Dihydroxy-2-((E)-(S)-3-hydroxy-oct-1-enyl)-cyclopentyl]-hept-5-enoic acid [2-(3,4-dihydroxy-phenyl)-ethyl]-amide]",0,−3.8*,−3.2**,−3.2**,−1.1*
"CCCCC[C@H](O)/C=C/[C@@H]1[C@@H](C/C=C\CCCC(=O)NCCc2ccc(OC(C)=O)c(OC(C)=O)c2)[C@@H](O)C[C@H]1O [Compound 1, acetic acid 2-acetoxy-5-(2-{(Z)-7-[(1R,2R,3R,5S)-3,5-dihydroxy-2-((E)-(S)-3-hydroxy-oct-1-enyl)-cyclopenyl]-hept-5-enoylamino}-ethyl)-phenyl ester]",0,−4.4**,−3.4**,−3.1**,−1.4*
"CCCCC[C@H](O)/C=C/[C@@H]1[C@@H](C/C=C\CCCC(=O)NCCc2c[nH]c3ccc(O)cc23)[C@@H](O)C[C@H]1O [Compound 3, (Z)-7-[(1R,2R,3R,5S)-3,5-Dihydroxy-2-((E)-(S)-3-hydroxy-oct-1-enyl)-cyclopentyl]-hept-5-enoic acid [2-(5-hydroxy-1H-indol-3-yl)-ethyl]-amide]",0,−3.2*,−5.8*,−7.6**,−2.2
